Assay results published in patent US20130296370A1, “COMPOSITION COMPRISING A PHOTOACTIVATABLE LARVICIDE” (UNIVERSITA DEGLI STUDI DI PADOVA, priority 2010, published 2013).

How the values were obtained:
[1] = Singlet oxygen quantum yield (DMA chemical quenching); format: physicochemical; conditions: DMA quenching in DMF; 400-800 nm, 100 mW/cm^2
Procedure: The potential of the C14 porphyrin as a photosensitising agent was assessed on the basis of the quantum yield (φΔ) of singlet oxygen (^1O2) generation by the photoexcited triplet state of the porphyrin, namely the number of ^1O2 molecules generated per number of absorbed light photons. In the present study φΔ was measured by following the decrease in the fluorescence emission of 9,10-dimethyl-anthracene (DMA) upon its photosensitised conversion into the corresponding non-fluorescent 9,10-endoperoxide. […] In a typical experiment, a DMA solution (1.5 ml, initial absorbance around 1 at 380 nm) and porphyrin solution (1.5 ml, initial absorbance around 0.4 at 420 nm) in N,N-dimethyl-formamide (DMF) were placed in a quartz cuvette with a 1 cm optical path and irradiated with 400-800 nm light wavelengths (Teclas lamp, 100 mW cm-2) at 20° C.±2° C. under gentle magnetic stirring for different periods of time up to 20 min. The DMA fluorescence emission was recorded in the 380-550 nm wavelength range with excitation at 360 nm. The first-order rate constant of the photoprocess was obtained by plotting In F0/F as a function of the irradiation time t, where F0 and F represent the fluorescence intensity at time 0 and time t, respectively. The slope of the linear plot thus obtained allowed the rate constant of the photoprocess to be calculated. […]

[2] = Aggregation of C14 by Beer-Lambert titration; format: physicochemical; conditions: aqueous solution; linear plot of Soret band at 424 nm
Procedure: To test the possible occurrence of aggregation processes for this porphyrin, the intensity of the Soret band was titrated as a function of the porphyrin concentration according to the Beer-Lambert law. In a first phase of our investigations, the data were calculated up to a porphyrin concentration of 0.16 mM (FIG. 1A), since the optical density of more concentrated porphyrin solutions became too large even using cuvettes of 0.1 cm optical path. […] This spectral feature is generally attributed to the presence of porphyrin oligomers (Reddi E, Ceccon M, Valduga G, Joni G, Bommer J C, et al. (2002) Photophysical properties and antibacterial activity of meso-substituted cationic porphyrins. Photochem Photobiol 75: 462-470). To test the possibility that the hydrophobicity imparted by the long alkyl chain of C14 may favour the occurrence of some aggregation as the concentration increases, the titration was extended to larger molarities calculating the absorbance values at 404 nm instead of 424 nm (FIG. 2B).

Aedes aegypti larvae [3] = experiment: C14 porphyrin toxicity in the dark; format: in vivo; conditions: for emerged adults (%) / emerged adults (count) / adult % survival after light exposure: 5 μM C14; for emerged adults (%) / emerged adults (count): pooled data; for adult % survival after light exposure: 12 h-long irradiation 1.0-4.0 mW/cm^2
Procedure: (§1) All the experiments were carried out in a climatic chamber at 28±2° C. with a regulated photoperiod of 12 hours. Transparent plastic trays, containing 500 ml C14 solutions or spring water were employed. Typically, 5±1 days old, 3rd-early 4th instar Aedes aegypti larvae were used. All the experiments were replicated three times.
At the end of the incubation period, dead and living larvae were counted in each tray. Larvae were then washed with tap water, and transferred to new trays containing spring water and PFP. Trays were kept in the dark until adults emerged. Adults were counted and exposed to light (intensity 1.0-4.0 mW/cm^2) for 12 hours, and their mortality was evaluated at the end of the irradiation period.

Aedes aegypti larvae [4] = experiment: C14 porphyrin toxicity in the light; format: in vivo; conditions: 5 μM C14
Procedure: […] After the irradiation period, larvae were kept in the dark and larval mortality was monitored for 6 days. Arithmetic means of percentages of dead larvae. Error bars represent standard deviations (n=3 replicates of 50 larvae each).
Irradiation of mosquito larvae were performed by employing full spectrum visible light (400-800 nm) at a fluence rate of 1.0 to 4.0 mW/cm^2 using low-pressure mercury discharge fluorescent tubes TL-D Standard Colours (TL-D 58W/33-640 1SL, PHILIPS, EC). The intensity of the incident radiation was measured by an ILT1400A radiometer/photometer, equipped with a SED623/HNK15 multi-junction thermopile detector (International Light Technologies Inc., MA, USA).
as §1
Fifty larvae were added to groups of trays containing 5 μM porphyrin C14 solution or spring water as a control. Trays were provided with PFP (wherein PFP means powdered food pellet (PFP) with final particle diameter of 5-500 μm diameter obtained by crushing a standard food pellet for laboratory rodents, namely 4RF18 GLP (Mucedola Srl, Italy) using an electric blender and then sieving at mesh diameter 500 μm) and incubated in the dark for 12 hours. […] After irradiation, the trays were returned in the dark, and larval mortality was assessed every 24 hours for the following 6 days. Larvae not moving or not showing a normally vigorous escaping response at probing were defined as dead or dying, respectively, and counted together. Pupae formed during the experiment were transferred to smaller trays containing spring water, within screened cages at normal colony photoperiod conditions, and monitored for mortality and adult emergence.

CCCCCCCCCCCCCC[n+]1ccc(-c2c3nc(c(-c4cc[n+](C)cc4)c4ccc([nH]4)c(-c4cc[n+](C)cc4)c4nc(c(-c5cc[n+](C)cc5)c5ccc2[nH]5)C=C4)C=C3)cc1.Cc1ccc(S(=O)(=O)[O-])cc1.Cc1ccc(S(=O)(=O)[O-])cc1.Cc1ccc(S(=O)(=O)[O-])cc1.Cc1ccc(S(=O)(=O)[O-])cc1 [C14, meso-tri(N-methyl-pyridyl), mono(N-tetradecyl-pyridyl)porphine]
quantum yield of ^1O2 photogeneration [1]: 0.46
concentration up to which a purely monomeric state is indicated [2]: up to 0.16 mM
emerged adults (%) (Aedes aegypti larvae [3]; dark incubation 3 hours): (97.9) %
emerged adults (count) (Aedes aegypti larvae [3]; dark incubation 3 hours): 138/141
emerged adults (%) (Aedes aegypti larvae [3]; dark incubation 8 hours): (100) %
emerged adults (count) (Aedes aegypti larvae [3]; dark incubation 8 hours): 128/128
emerged adults (%) (Aedes aegypti larvae [3]; dark incubation 24 hours): (97.9) %
emerged adults (count) (Aedes aegypti larvae [3]; dark incubation 24 hours): 138/141
adult % survival after light exposure (Aedes aegypti larvae [3]; larval dark incubation 3 hours): 100%
adult % survival after light exposure (Aedes aegypti larvae [3]; larval dark incubation 8 hours): 100%
adult % survival after light exposure (Aedes aegypti larvae [3]; larval dark incubation 24 hours): 100%
larval mortality in the dark (Aedes aegypti larvae [3]; 5 μM C14 solution, irrespectively of the duration of incubation): No mortality
larval mortality (Aedes aegypti larvae [4]; 6 hour-long light, count 24 hours later): 100%
larval mortality (Aedes aegypti larvae [4]; dark-incubated 8 hours, 6 hour-long light 1.0-4.0 mW/cm^2, within irradiation period): 97.99%±0.05%
larval mortality (Aedes aegypti larvae [4]; irradiated one hour, thereafter kept in the dark, day 6): 92.1%±7.9%
